In brackets after ≈: the same amount, converted by molar mass. Several values for one entry are separate records, joined by “and”; a condition that tells them apart may be missing. Equal values may be shown once.
assay: Kinetic solubility of compound by measuring concentration at pH 7.4 in saturated PBS buffer by UV LCMS/MS using calibration curves. The assay has been performed by Enamine biological services, Bienta Ltd.The protocol is publicly available: dx.doi.org/10.17504/protocols.io.j8nlk8y41l5r/v1; assay type: physicochemical; conditions: PBS buffer

Structure (SMILES)	solubility kinetic
CSc1cc2c(cc1NC(=O)c1cc(F)cc3[nH]ncc13)CNC2	392 µM (≈ 134 µg/mL)
O=C(NCC(F)F)[C@H](Nc1cnc2c(c1)CNC2)c1cc(Cl)cc(C2CC2)c1	362 µM (≈ 147 µg/mL)
Nc1ccncc1-c1cc(F)cc(C(=O)Nc2ccc3c(c2)CNC3)c1	392 µM (≈ 137 µg/mL)

The next lines start with the values.

solubility kinetic	Structure (SMILES)
377 µM (≈ 136 µg/mL)	O=C(Nc1ccc2c(c1)CNC2)c1ccc2[nH]cc(C3CCNCC3)c2c1
333 µM (≈ 161 µg/mL)	O=C(NCC(F)F)[C@H](Nc1cc2c(cc1Br)CNC2)c1cc(Cl)cc(C2CC2)c1
≥ 400 µM	CNC(=O)c1cc(Br)cc([C@H](Nc2ccc3c(c2)CNC3)C(=O)NCC(F)F)c1
16 µM (≈ 6.47 µg/mL)	COc1ccc(-c2nc3c(C(=O)Nc4ccc5c(c4)CNC5)cc(F)cc3[nH]2)nn1
≥ 400 µM	Cn1ncc2c(C(=O)Nc3ccc4c(c3)CNC4)cc(Cl)cc21

same assay, conditions: buffer

Solubility (mean)	Structure (SMILES)
367 µM and 326 µM	O=C(NCC(F)F)[C@H](Nc1ccc2c(c1)CNC2)c1cc(Cl)cc(C2CC2)c1

same assay, conditions: buffer, ph 7.5

Solubility (mean)	Structure (SMILES)
139 µM (≈ 56.4 µg/mL)	O=C(NCC(F)F)[C@H](Nc1ccc2c(c1)CNC2)c1cc(Cl)cc(C2CC2)c1

Reference: ChEMBL document CHEMBL5674850, “ASAP - Solubility” (2024)
